Measurements published in patent US8716289B2, “Carbamate derivatives of alkyl-heterocycles, preparation thereof and therapeutic use thereof” (Sanofi, priority 2008, dated 2014).

How the values were obtained:
[1] = biological target: T1, enzyme FAAH (Fatty Acid Amide Hydrolase) (Mus musculus, UniProt O08914); assay: FAAH radioenzymatic test, hydrolysis of anandamide [ethanolamine 1-3H] (Protocol 1); assay type: biochemical; settings: mouse brain membrane homogenate, anandamide 10 μM, preincubation 20 min at 25° C.
T1 construct: The membrane homogenates are prepared extemporaneously by homogenizing the tissues; from tissue; host or cells: mouse brain (minus the cerebellum), membrane homogenate
T1 sequence (O08914 1-579): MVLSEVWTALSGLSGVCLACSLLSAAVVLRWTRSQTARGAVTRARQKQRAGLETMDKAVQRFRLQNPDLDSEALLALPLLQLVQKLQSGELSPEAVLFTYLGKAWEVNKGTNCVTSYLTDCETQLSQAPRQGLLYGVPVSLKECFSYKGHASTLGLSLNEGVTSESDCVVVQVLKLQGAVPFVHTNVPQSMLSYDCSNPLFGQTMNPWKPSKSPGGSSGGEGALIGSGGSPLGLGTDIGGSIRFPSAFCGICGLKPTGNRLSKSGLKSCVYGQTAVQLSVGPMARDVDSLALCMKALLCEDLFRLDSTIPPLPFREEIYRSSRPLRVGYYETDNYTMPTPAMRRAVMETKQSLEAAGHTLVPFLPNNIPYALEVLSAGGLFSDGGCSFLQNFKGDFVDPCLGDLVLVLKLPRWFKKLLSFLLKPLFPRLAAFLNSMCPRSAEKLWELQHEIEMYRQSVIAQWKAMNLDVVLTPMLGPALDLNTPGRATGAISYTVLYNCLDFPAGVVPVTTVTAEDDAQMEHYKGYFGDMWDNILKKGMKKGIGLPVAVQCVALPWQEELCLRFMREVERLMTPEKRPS
Procedure: Thus, mouse brains (minus the cerebellum) are removed and stored at −80° C. The membrane homogenates are prepared extemporaneously by homogenizing the tissues using a Precellys® machine in reaction buffer (10 mM Tris-HCl, pH=8, 150 mM NaCl and 1 mM ethylenediaminetetraacetic acid (EDTA)). The enzymatic reaction is performed in 96-well Multiscreen filtration plates in a final volume of 70 μL. Reaction buffer supplemented with fatty acid-free bovine serum albumin (BSA, 1 mg/ml) is used for the enzymatic reaction and the dilution of the compounds and of the anandamide [ethanolamine 1-^3H]. The reaction buffer containing BSA (43 μL/well), the diluted test compounds at different concentrations (7 μL/well containing 1% DMSO) and the membrane preparation (10 μL/well, i.e. […] of tissue per test) are successively added to the wells. After preincubation for 20 minutes of the compounds with the enzyme at 25° C., the reaction is started by adding anandamide [ethanolamine 1-^3H]. (Specific activity of 15-20 Ci/mmol) diluted with cold anandamide (10 μL/well, final concentration of 10 μM, 0.01 ρCi per test). After incubation for 20 minutes at 25° C., the enzymatic reaction is stopped by adding a […] solution of active charcoal prepared in 1.5M NaCl buffer and 0.5 M HCl (50 μL/well). The mixture is stirred for 10 minutes and the aqueous phase containing the ethanolamine [1-^3H] is then recovered by filtration under vacuum and counted by liquid scintillation.

male OF1 mice = assay: test of analgesia: PBQ-induced abdominal stretching; assay type: in vivo, mouse; settings: 30 mg/kg p.o. at 120 minutes
Procedure: The in vivo activity of the compounds of the invention was evaluated in a test of analgesia.
Thus, the intraperitoneal (i.p.) administration of PBQ (phenylbenzoquinone, 2 mg/kg in 0.9% sodium chloride solution containing 5% ethanol) to male OF1 mice weighing 25 to 30 g causes abdominal stretching, on average 30 torsions or contractions within a period of 5 to 15 minutes after injection. The test compounds are administered orally (p.o.) or intraperitoneally (i.p.) suspended in Tween 80 at 0.5%, 60 minutes or 120 minutes before the administration of PBQ. Under these conditions, the compounds of the invention that are the most powerful reduce by 30% to 80% the number of stretches induced with PBQ, over a dose range of between 1 and 30 mg/kg.

IC50 [1] [nM] | melting point [°C] | SMILES | reduction of the number of stretches induced with PBQ (male OF1 mice) [%]
2 | – | NC(=O)c1cc(COC(=O)NCCC2CCN(c3nccc(C(F)(F)F)n3)CC2)on1 [Compound 38] | –
– | 187 to 189 | CNC(=O)c1cc(COC(=O)NCC2(F)CCN(c3nccc(C(F)(F)F)n3)CC2)on1 [Compound 57, 3-methylcarbamoylisoxazol-5-ylmethyl [4-fluoro-1-(4-trifluoromethylpyrimidin-2-yl)piperidin-4-yl]methylcarbamate] | –
– | 181.5 to 183.5 | CNC(=O)c1cc(COC(=O)NCCC2CCN(c3cnc(-c4ccc(F)cc4)cn3)CC2)on1 [Compound 69, 3-methylcarbamoylisoxazol-5-ylmethyl (2-{1-[5-(4-fluorophenyl)pyrazin-2-yl]piperidin-4-yl}ethyl)carbamate] | –
– | 197 to 199 | CNC(=O)c1cc(COC(=O)NC2CCN(c3nccc(C(F)(F)F)n3)CC2)on1 [Compound 70, 3-methylcarbamoylisoxazol-5-ylmethyl [1-(4-trifluoromethylpyrimidin-2-yl)piperidin-4-yl]carbamate] | –
– | 160 to 162 | CNC(=O)c1cc(COC(=O)NCCC2(C)CCN(c3nccc(C(F)(F)F)n3)CC2)on1 [Compound 72, 3-methylcarbamoylisoxazol-5-ylmethyl {2-[4-methyl-1-(4-trifluoromethylpyrimidin-2-yl)piperidin-4-yl]ethyl}carbamate] | –
– | 208 to 210 | CNC(=O)c1cc(COC(=O)NC2CCN(c3nnc(Cl)c4ccccc34)CC2)on1 [Compound 75, 3-methylcarbamoylisoxazol-5-ylmethyl [1-(4-chlorophthalazin-1-yl)piperidin-4-yl]carbamate] | –
– | 156 to 158 | CNC(=O)c1cc(COC(=O)NC2CCN(c3ccc([N+](=O)[O-])cc3C(F)(F)F)CC2)on1 [Compound 76, 3-methylcarbamoylisoxazol-5-ylmethyl [1-(4-nitro-2-trifluoromethylphenyl)piperidin-4-yl]carbamate] | –
– | 232 to 234 | CNC(=O)c1cc(COC(=O)NC2CCN(c3cnc4cc(Cl)ccc4n3)CC2)on1 [Compound 77, 3-methylcarbamoylisoxazol-5-ylmethyl [1-(6-chloroquinoxalin-2-yl)piperidin-4-yl]carbamate] | –
– | 163 to 165 | NC(=O)c1cc(COC(=O)NCCC2CN(c3nccc(C(F)(F)F)n3)C2)on1 [Compound 82, 3-carbamoylisoxazol-5-ylmethyl {2-[1-(4-trifluoromethylpyrimidin-2-yl)azetidin-3-yl]ethyl}carbamate] | –
– | 155 to 157 | CNC(=O)c1cc(COC(=O)NCCC2CN(c3nccc(C(F)(F)F)n3)C2)on1 [Compound 83, 3-methylcarbamoylisoxazol-5-ylmethyl {2-[1-(4-trifluoromethylpyrimidin-2-yl)azetidin-3-yl]ethyl}carbamate] | –

Continued, compound first:

SMILES | IC50 [1] [nM] | melting point [°C] | reduction of the number of stretches induced with PBQ (male OF1 mice) [%]
NC(=O)c1cc(COC(=O)NCCC2CCN(c3ccc4cc(Cl)ccc4n3)CC2)on1 [Compound 1, 3-carbamoylisoxazol-5-ylmethyl 2-[1-(6-chloroquinolin-2-yl)piperidin-4-yl]ethylcarbamate] | 1 | 220 to 222 | 55
Cn1ncnc1COC(=O)NCCC1CCN(c2ccc3cc(Cl)ccc3n2)CC1 [Compound 2, 2-methyl-2H-[1,2,4]triazol-3-ylmethyl 2-[1-(6-chloroquinolin-2-yl)piperidin-4-yl]ethylcarbamate] | 40 | 122 to 124 | –
CCc1noc(COC(=O)NCCC2CCN(c3ccc(-c4ccc(F)cc4)cn3)CC2)n1 [Compound 5, 3-ethyl[1,2,4]oxadiazol-5-ylmethyl 2-[5′-(4-fluorophenyl)-3,4,5,6-tetrahydro-2H-[1,2′]bipyridinyl-4-yl]-ethylcarbamate] | 2 | 110 to 112 | –
O=C(NCCC1CCN(c2ccc(-c3ccc(F)cc3)cn2)CC1)OCc1csnn1 [Compound 9, [1,2,3]thiadiazol-4-ylmethyl 2-[5′-(4-fluorophenyl)-3,4,5,6-tetrahydro-2H-[1,2′]bipyridinyl-4-yl]ethylcarbamate] | 2 | 139 to 141 | –
O=C(NCCC1CCN(c2ccc3cc(Cl)ccc3n2)CC1)OCc1nnc(-c2ccc(F)cc2)o1 [Compound 12, 5-(4-fluorophenyl)[1,3,4]oxadiazol-2-ylmethyl 2-[1-(6-chloroquinolin-2-yl)piperidin-4-yl]ethylcarbamate] | 47 | 169 to 170 | –
NC(=O)c1cc(COC(=O)NCCC2CCN(c3ccc(-c4ccc(F)cc4)cn3)CC2)on1 [Compound 19, 3-carbamoylisoxazol-5-ylmethyl 2-[5′-(4-fluorophenyl)-3,4,5,6-tetrahydro-2H-[1,2′]bipyridinyl-4-yl]ethylcarbamate] | 1 | 202 to 204 | 30
NC(=O)c1cc(COC(=O)NCCC2CCN(c3ccc(-c4ccc(F)cc4)nn3)CC2)on1 [Compound 41] | 0.6 | – | –
CN1CCN(C(=O)c2cc(COC(=O)NCCC3CCN(c4ccc(-c5ccc(F)cc5)cn4)CC3)on2)CC1 [Compound 46] | 16 | – | –
Cn1ccc(COC(=O)NCCCC2CCN(c3nccc(C(F)(F)F)n3)CC2)n1 [Compound 52] | 28 | – | –
CCOC(=O)c1cc(COC(=O)NCC2(F)CCN(c3ccc4cc(Cl)ccc4n3)CC2)on1 [Compound 56, ethyl 5-[1-(6-chloroquinolin-2-yl)-4-fluoropiperidin-4-ylmethylcarbamoyloxymethyl]isoxazole-3-carboxylate] | – | 132 to 134 | –
CC(C)c1nc(COC(=O)NCC2CCN(c3nnc(Cl)c4ccccc34)CC2)no1 [Compound 59, 5-isopropyl[1,2,4]oxadiazol-3-ylmethyl [1-(4-chlorophthalazin-1-yl)piperidin-4-yl]methylcarbamate] | – | 139 to 141 | –
CCC1(CCNC(=O)OCc2cc(C(=O)NC)no2)CCN(c2cnc3cc(Cl)ccc3n2)CC1 [Compound 64] | 3 | – | –
CNC(=O)c1cc(COC(=O)NCCC2(CC(C)C)CCN(c3ccc([N+](=O)[O-])cc3C(F)(F)F)CC2)on1 [Compound 66, 3-methylcarbamoylisoxazol-5-ylmethyl {2-[4-isobutyl-1-(4-nitro-2-trifluoromethylphenyl)piperidin-4-yl]ethyl}carbamate] | – | 145 to 147 | –
CC(C)c1nc(COC(=O)NCC2CCN(c3nccc4ccccc34)CC2)no1 [Compound 67, 5-isopropyl[1,2,4]oxadiazol-3-ylmethyl (1-isoquinolin-1-ylpiperidin-4-ylmethyl)carbamate] | – | 95 to 97 | –
NC(=O)c1cc(COC(=O)NCCC2CCN(c3cnc(-c4ccc(F)cc4)cn3)CC2)on1 [Compound 68, 3-carbamoylisoxazol-5-ylmethyl (2-{1-[5-(4-fluorophenyl)-pyrazin-2-yl]piperidin-4-yl}ethyl)carbamate] | – | 187 to 189 | –
CCOC(=O)c1cc(COC(=O)NCCC2CCN(c3ccc4cc(Cl)ccc4n3)CC2)on1 [Compound 71, ethyl 5-{2-[1-(6-chloroquinolin-2-yl)piperidin-4-yl]-ethylcarbamoyloxymethyl}isoxazole-3-carboxylate] | – | 117 to 119 | –
CNC(=O)c1cc(COC(=O)NCCC2(C)CCN(c3cnc4cc(Cl)ccc4n3)CC2)on1 [Compound 78, 3-methylcarbamoylisoxazol-5-ylmethyl {2-[1-(6-chloroquinoxalin-2-yl)-4-methylpiperidin-4-yl]ethyl}carbamate] | – | 167 to 169 | –
